In US8603947B2, “(4-haloalkyl-3-thiobenzoyl)cyclohexanediones and use thereof as herbicides” (Bayer Cropscience AG, priority 2010, dated 2013):

Columns and labels:
Assay type in all cases: in vivo
[1] = test system: Pharbitis purpureum (PHBPU); assay: Post-emergence herbicidal action against weed plants; details: scored after 3 to 4 weeks
Experimental: (§1) [table] 2. Post-emergence Herbicidal Action Against Weed Plants Seeds of monocotyledonous and dicotyledonous weed plants are set out in cardboard pots in sandy loam soil, covered with soil, and cultivated under glass under good growth conditions. Two to three weeks after sowing, the trial plants are treated at the three-leaf stage. The compounds according to the invention, formulated as wettable powders or as emulsifiable concentrates, are sprayed onto the surface of the green parts of the plants, at a water application rate of 600 to 800 l/ha (converted). After the trial plants have stood for 3 to 4 weeks under optimum growth conditions under glass, the action of the compounds according to the invention is scored in comparison to compounds disclosed in the prior art.

[2] = test system: Alopecurus myosuroides (ALOMY); assay: as above; details: scored after 3 to 4 weeks
Experimental: as §1

[3] = test system: Amaranthus retroflexus (AMARE); assay: as above; details: dose 80 g a.c./ha, scored after 3 to 4 weeks, Comparison Table 8
Experimental: as §1

[4] = test system: Matricaria inodora (MATIN); assay: Pre-emergence herbicidal action against weed plants; details: dose 320 g a.c./ha, scored after 3 to 4 weeks, Comparison Table 4
Text: (§2) 1. Pre-emergence Herbicidal Action Against Weed Plants Seeds or rhizome sections of mono- and dicotyledonous weed plants are set out in pots of 9 to 13 cm in diameter, in sandy loam soil, and are covered with soil. The herbicides, formulated as emulsifiable concentrates or dusts, are applied to the surface of the covering earth in the form of aqueous dispersions or suspensions or emulsions, at a water application rate of 300 to 800 l/ha (converted). The pots are then maintained under glass under optimum conditions for the further cultivation of the plants. After 3 to 4 weeks under optimum growth conditions under glass, the trial plants are scored for the effect of the compounds according to the invention in comparison to compounds disclosed in the prior art. […] [table]

[5] = test system: Pharbitis purpureum (PHBPU); assay: as above; details: scored after 3 to 4 weeks
Text: as §2

Avena fatua (AVEFA) = assay: as above; details: dose 320 g a.c./ha, scored after 3 to 4 weeks, Comparison Table 4
Text: as §2

Viola tricolor (VIOTR) [6] = assay: as above; details: scored after 3 to 4 weeks
Text: as §2

[7] = test system: Echinochloa crus galli (ECHCG); assay: Post-emergence herbicidal action against weed plants; details: dose 80 g a.c./ha, scored after 3 to 4 weeks
Experimental: as §1

[8] = test system: Matricaria inodora (MATIN); assay: as above; details: dose 80 g a.c./ha, scored after 3 to 4 weeks
Experimental: as §1

Setaria viridis (SETVI) [9] = assay: Pre-emergence herbicidal action against weed plants; details: dose 80 g a.c./ha, scored after 3 to 4 weeks, Comparison Table 5
Text: as §2

Viola tricolor (VIOTR) [10] = assay: Post-emergence herbicidal action against weed plants; details: dose 80 g a.c./ha, scored after 3 to 4 weeks, Comparison Table 11
Experimental: as §1

Setaria viridis (SETVI) [11] = assay: as above; details: dose 80 g a.c./ha, scored after 3 to 4 weeks, Comparison Table 11
Experimental: as §1

[12] = dose 80 g a.c./ha, Comparison Table 8
[13] = dose 320 g a.c./ha, Comparison Table 4
[14] = dose 80 g a.c./ha, Comparison Table 2
[15] = dose 80 g a.i./ha, Comparison Table 7
[16] = dose 80 g a.c./ha, Comparison Table 10
[17] = dose 80 g a.c./ha, Comparison Table 6
[18] = dose 80 g a.c./ha, Comparison Table 9
[19] = dose 320 g a.c./ha, Comparison Table 3
[20] = dose 80 g a.c./ha, Comparison Table 5
[21] = dose 80 g a.c./ha, Comparison Table 11
[22] = dose 320 g a.c./ha, Comparison Table 1

In the case of `Cc1c(C(=O)C2C(=O)C3CCC(C3)C2=O)ccc(C(F)(F)C(F)(F)F)c1[S+](C)[O-]` (stereo not drawn) [drawing 27], the “Herbicidal action against PHBPU” value [1, 12] is reported as 100%, the “Herbicidal action against ALOMY” value [2, 12] is reported as 90% and the “Herbicidal action against AMARE” value [3] is reported as 100%.
In the case of `CCn1ncc(C(=O)c2ccc(C(F)(F)F)c(S(C)(=O)=O)c2C)c1O` [drawing 20], the “Herbicidal action against MATIN” value [4] is reported as 90%, the “Herbicidal action against PHBPU” value [5, 13] is reported as 50% and the “Herbicidal action against AVEFA” value (Avena fatua (AVEFA)) is reported as 40%.
`CCn1ncc(C(=O)c2ccc(C(F)(F)F)c([S+](C)[O-])c2C)c1O` (stereo not drawn) was tested, and the “Herbicidal action against VIOTR” value (Viola tricolor (VIOTR) [6]; [14]) was 50% and the “Herbicidal action against PHBPU” value [5, 14] was 0%.
In the case of `Cc1c(C(=O)C2C(=O)C3CCC(C3)C2=O)ccc(C(F)(F)C(F)(F)F)c1S(C)(=O)=O` (stereo not drawn) [drawing 19], the “Herbicidal action against MATIN” value [4] is reported as 100%, the “Herbicidal action against PHBPU” value [5, 13] is reported as 90% and the “Herbicidal action against AVEFA” value (Avena fatua (AVEFA)) is reported as 80%.
With `Cc1c(C(=O)c2cnn(C)c2O)ccc(C(F)(F)F)c1[S+](C)[O-]` (stereo not drawn) [drawing 26] the “Herbicidal action against PHBPU” value [1, 15] was 80% and the “Herbicidal action against ALOMY” value [2, 15] was 60%.
For `CCn1ncc(C(=O)c2ccc(C(F)(F)F)c(S(C)(=O)=O)c2C)c1O` [drawing 32], the “Herbicidal action against ECHCG” value ([7]; Comparison Table 10) was 90%, the “Herbicidal action against MATIN” value ([8]; Comparison Table 10) was 90% and the “Herbicidal action against PHBPU” value [1, 16] was 40%.
For `Cc1c(C(=O)C2C(=O)C3CCC(C3)C2=O)ccc(C(F)(F)C(F)(F)F)c1[S+](C)[O-]` (stereo not drawn) [drawing 23], the “Herbicidal action against PHBPU” value [1, 17] was 100% and the “Herbicidal action against ALOMY” value [2, 17] was 90%.
`Cc1c(C(=O)C2C(=O)C3CCC(C3)C2=O)ccc(C(F)(F)C(F)(F)F)c1S(C)(=O)=O` (stereo not drawn) [drawing 29] was tested, and the “Herbicidal action against ECHCG” value ([7]; Comparison Table 9) was 100%, the “Herbicidal action against MATIN” value ([8]; Comparison Table 9) was 100% and the “Herbicidal action against PHBPU” value [1, 18] was 90%.
In the case of `Cc1c(C(=O)C2C(=O)C3CCC(C3)C2=O)ccc(C(F)(F)C(F)(F)F)c1[S+](C)[O-]` (stereo not drawn) [drawing 17], the “Herbicidal action against VIOTR” value (Viola tricolor (VIOTR) [6]; [19]) is reported as 100% and the “Herbicidal action against PHBPU” value [5, 19] is reported as 90%.
In the case of `Cc1c(C(=O)C2C(=O)C3CCC(C3)C2=O)ccc(C(F)(F)C(F)(F)F)c1S(C)(=O)=O` (stereo not drawn) [drawing 21], the “Herbicidal action against VIOTR” value (Viola tricolor (VIOTR) [6]; [20]) is reported as 100% and the “Herbicidal action against SETVI” value (Setaria viridis (SETVI) [9]) is reported as 100%.
In the case of `Cc1nn(C)c(O)c1C(=O)c1ccc(C(F)(F)F)c([S+](C)[O-])c1C` (stereo not drawn) [drawing 18], the “Herbicidal action against VIOTR” value (Viola tricolor (VIOTR) [6]; [19]) is reported as 40% and the “Herbicidal action against PHBPU” value [5, 19] is reported as 60%.
In the case of `Cc1nn(C)c(O)c1C(=O)c1ccc(C(F)(F)F)c(S(C)(=O)=O)c1C`, the “Herbicidal action against VIOTR” value (Viola tricolor (VIOTR) [10]) is reported as 80%, the “Herbicidal action against PHBPU” value [1, 21] is reported as 80% and the “Herbicidal action against SETVI” value (Setaria viridis (SETVI) [11]) is reported as 60%.
With `Cc1c(C(=O)c2cnn(C)c2O)ccc(C(F)(F)F)c1[S+](C)[O-]` (stereo not drawn) [drawing 14] the “Herbicidal action against VIOTR” value (Viola tricolor (VIOTR) [6]; [22]) was 90% and the “Herbicidal action against PHBPU” value [5, 22] was 50%.
For `Cc1c(C(=O)C2C(=O)C3CCC(C3)C2=O)ccc(C(F)(F)C(F)(F)F)c1[S+](C)[O-]` (stereo not drawn) [drawing 13], the “Herbicidal action against VIOTR” value (Viola tricolor (VIOTR) [6]; [22]) was 100% and the “Herbicidal action against PHBPU” value [5, 22] was 90%.
With `Cc1c(C(=O)C2C(=O)C3CCC(C3)C2=O)ccc(C(F)(F)C(F)(F)F)c1[S+](C)[O-]` (stereo not drawn) [drawing 25] the “Herbicidal action against PHBPU” value [1, 15] was 100% and the “Herbicidal action against ALOMY” value [2, 15] was 90%.
In the case of `Cc1nn(C)c(O)c1C(=O)c1ccc(C(F)(F)F)c([S+](C)[O-])c1C` (stereo not drawn) [drawing 28], the “Herbicidal action against PHBPU” value [1, 12] is reported as 50%, the “Herbicidal action against ALOMY” value [2, 12] is reported as 30% and the “Herbicidal action against AMARE” value [3] is reported as 50%.
With `Cc1c(C(=O)c2cnn(C)c2O)ccc(C(F)(F)F)c1S(C)(=O)=O` [drawing 30] the “Herbicidal action against ECHCG” value ([7]; Comparison Table 9) was 95%, the “Herbicidal action against MATIN” value ([8]; Comparison Table 9) was 55% and the “Herbicidal action against PHBPU” value [1, 18] was 80%.
With `Cc1c(C(=O)C2C(=O)C3CCC(C3)C2=O)ccc(C(F)(F)C(F)(F)F)c1[S+](C)[O-]` (stereo not drawn) [drawing 15] the “Herbicidal action against VIOTR” value (Viola tricolor (VIOTR) [6]; [14]) was 100% and the “Herbicidal action against PHBPU” value [5, 14] was 80%.
In the case of `Cc1c(C(=O)C2C(=O)C3CCC(C3)C2=O)ccc(C(F)(F)C(F)(F)F)c1S(C)(=O)=O` (stereo not drawn) [drawing 31], the “Herbicidal action against ECHCG” value ([7]; Comparison Table 10) is reported as 100%, the “Herbicidal action against MATIN” value ([8]; Comparison Table 10) is reported as 100% and the “Herbicidal action against PHBPU” value [1, 16] is reported as 90%.
For `Cc1c(C(=O)C2C(=O)C3CCC(C3)C2=O)ccc(C(F)(F)C(F)(F)F)c1S(C)(=O)=O` (stereo not drawn) [drawing 33], the “Herbicidal action against VIOTR” value (Viola tricolor (VIOTR) [10]) was 100%, the “Herbicidal action against PHBPU” value [1, 21] was 90% and the “Herbicidal action against SETVI” value (Setaria viridis (SETVI) [11]) was 100%.
For `Cc1c(C(=O)c2cnn(C)c2O)ccc(C(F)(F)F)c1S(C)(=O)=O` [drawing 22], the “Herbicidal action against VIOTR” value (Viola tricolor (VIOTR) [6]; [20]) was 50% and the “Herbicidal action against SETVI” value (Setaria viridis (SETVI) [9]) was 60%.
`Cc1c(C(=O)c2cnn(C)c2O)ccc(C(F)(F)F)c1[S+](C)[O-]` (stereo not drawn) [drawing 24] was tested, and the “Herbicidal action against PHBPU” value [1, 17] was 60% and the “Herbicidal action against ALOMY” value [2, 17] was 60%.
